Reference: patent publication US5650415A, “Quinoline compounds” (Sugen, Inc., priority 1995, dated 1997)

Experiments:
[1] = target: T1, IGF-1R (Homo sapiens, UniProt P08069); experiment: Cellular IGF-1 Receptor ELISA; format: cell-based; conditions: 3T3/IGF-1R cells
T1 construct: expressed in transfected cells; host or cells: 3T3/IGF-1R cells (mouse 3T3 host)
Experimental: Cellular IGF-1 Receptor ELISA (Version I)
(1). The cell line used in this assay is 3T3/IGF-1R, a cell line which overexpresses IGF-1 Receptor.
(2). 3T3/IGF-1R is grown in an incubator with 5% CO2 at 37° C. The growth media is DMEM+10% FBS (heat inactivated)+2mM L-Glutamine.
(3). For ELISA plate coating, the anti-IGF-1R antibody named 17-69 is used. Antibodies are purified by the Enzymology Lab, SUGEN, Inc.
All the following steps are conducted at room temperature unless it is specifically indicated. All ELISA plate washings are performed by rinsing the plate with tap water three times, followed by one TBST rinse. Pat plate dry with paper towels.
(1). The cells, grown in tissue culture dish (10 cm, Corning 25020-100) to 80-90% confluence, are harvested with Trypsin-EDTA (0.25%, 0.5 ml/D-100, GIBCO).
(2). Resuspend the cells in fresh DMEM+10% FBS+2mM L-Glutamine, and transfer to 96-well tissue culture plate (Corning, 25806-96) at 20,000 cells/well (100 ul/well). Incubate for 1 day then replace medium to serum-free medium (90/ul) and incubate in 5% CO2 and 37° C. overnight.
(1). Coat the ELISA plate (Corning 25805-96) with Anti-IGF-1R Antibody at 0.5 ug/well in 100 ul PBS at least 2 hours.
(2). Remove the coating solution, and replace with 100 ul Blocking Buffer, and shake for 30 minutes. Remove the blocking buffer and wash the plate just before adding lysate.
(1). The drugs are tested in serum-free condition.
(2). Dilute drug stock (in 100% DMSO) 1:10 with DMEM in 96-well poly-propylene plate, and transfer 10 ul/well of this solution to the cells to achieve final drug dilution 1:100, and final DMSO concentration of 1.0%. Incubate the cells in 5% CO2 at 37° C. for 2 hours.
(3). Prepare fresh cell lysis buffer (HNTG HNTG 2 ml EDTA 0.1 ml Na3VO4 0.1 ml Na4P2O7 0.1 ml H20 7.3 ml HNTG* 10 ml.
(4). After drug incubation for two hours, transfer 10 ul/well of 200 nM IGF-1 Ligand in PBS to the cells (Final Conc=20 nM), and incubate at 5% CO2 at 37° C. for 10 minutes.
(5). Remove media and add 100ul/well HNTG* and shake for 10 minutes. Look at cells under microscope to see if they are adequately lysed.
(6). Use a 12-channel pipette to scrape the cells from the plate, and homogenize the lysate by repeat aspiration and dispense. Transfer all the lysate to the antibody coated ELISA plate [V.2.(2)], and shake for 1 hour.
(7). Remove the lysate, wash the plate, transfer anti-pTyr (1:3,000 with TBST) 100 ul/well, and shake for 30 minutes.
(7). Remove anti-pTyr, wash the plate, transfer detection antibody (1:3,000 with TBST) 100 ul/well, and shake for 30 minutes.
(8). Remove detection antibody, wash the plate, and transfer fresh ABTS/H2O2 (1.2 ul H2O2 to 10 ml ABTS) 100 ul/well to the plate to start color development.
(9). Measure OD (410 nm) in Dynatec MR5000, which is connected to Ingres.

[2] = test system: HER2; experiment: HER2 whole cell kinase ELISA (second HER2 column of Table 1); format: cell-based; conditions: cell line not given
Text: The following examples illustrates the ability of the exemplary compounds to inhibit receptor tyrosine kinases, such as HER2 and/or EGFR. The following target cells were used for cellular kinase assays: NIH3T3 clone C7 (Honegger et al., supra) engineered to over-express human EGF receptor; NIH3T3 cells engineered to over-express a chimeric receptor containing the EGFR extracellular domain and the HER2 intracellular kinase domain; the human mammary carcinoma line BT474 (ATCC HTB2) expressing HER2; and the human glioblastoma line U1242 that expresses PDGFR-beta. Growth assays were carried out using human mammary epithelial SKBR3 (ATCC HTB30) cells (SKBR3 cells over-express HER2), SKOV3 (AT(D(D HTB77) human ovarian cancer cell line (SKOV3 cells also over-express HER2), A431 cells (A431 cells over-express EGFR) MCF7 human breast carcinoma cells, MCF7 cells overexpressing the HER2 kinase (MCF7-HER2), NIH3T3 cells, and NIH3T3 cells overexpressing the HER2 kinase (3T3-HER2. EGFR-HER2 Chimeric Recetor HER2 kinase activity (EGFR-3T3) in whole cells was measured as described below: HER2-ELISA HER2-BT474 assays measuring whole cell HER2 activity was carried out as described below: 1. The cell line used in this assay is BT-474 (ATCC HBT20), a human breast tumor cell line which expresses high levels of HER2 kinase. 2. BT-474 is grown in an incubator with 5% CO2 at 37° C. The growth media is RPMI+10% FBS+GMS-G (Gibco supplement)+Glutamine. 3. A monoclonal anti-HER2 antibody is used in ELISA. (a) Grow BT474 cells in tissue culture dishes (10 cm, Corning 25020-100) to 80-90% confluence and collect using Trypsin-EDTA (0.25%, GIBCO). (b) Resuspend the cells in fresh medium and transfer to 96-well tissue culture plates (Corning, 25806-96) at about 25,000-50,000 cells/well (100 μl/well). Incubate the cells in 5% CO2 at 37° C. overnight. (a) Coat the ELISA plate (Corning 25805-96) with anti HER2 antibody at 0.5 μg/well in 150 μl PBS overnight at 4.sunburst. C., and seal with parafilm. The antibody coated plates can be used up to 2 weeks, when stored at 4° C. (b) On the day of use, remove the coating solution, replace with 200 μl of Blocking Buffer, shake the plate, and then remove the blocking buffer and wash the plate just before adding lysate. (a) TBST the drugs in serum-free condition. Before adding drugs, the old media (b) Dilute drug stock (in 100% DMSO) 1:10 with RPMI, and transfer 10 μl/well of this solution to the cells to achieve a final drug DMSO concentration at 1%. Incubate the cells in 5% CO2 at 37° C. (d) After drug preincubation for two hours remove all the solution from the plate, transfer HNTG* 100 μl/well to the cells, and shake for 10 minutes. (e) Use a 12-channel pipette to scrape the cells from the plate, and homogenize the lysate by repeat aspiration and dispensing. Transfer all the lysate to the ELISA plate and shake for 1 hour. (f) Remove the lysate, wash the plate, add anti-pTyr (1:3,000 with TBST) 100 μl/well, and shake for 30 minutes. (g) Remove anti-pTyr, wash the plate, add goat anti-rabbit IgG conjugated antibody (1:5,000 with TBST) 100 μl/well, and shake for 30 minutes. (h) Remove anti-rabbit IgG antibody, wash the plate, and add fresh ABTS/H2 O2 (1.2 μl H2 O2 to 10 ml ABTS) 100 l/we1l to the plate to start color development, which usually takes 20 minutes. (i) Measure OD 410 nm, Dynatec MR5000.

T1 sequence (P08069 31-1367): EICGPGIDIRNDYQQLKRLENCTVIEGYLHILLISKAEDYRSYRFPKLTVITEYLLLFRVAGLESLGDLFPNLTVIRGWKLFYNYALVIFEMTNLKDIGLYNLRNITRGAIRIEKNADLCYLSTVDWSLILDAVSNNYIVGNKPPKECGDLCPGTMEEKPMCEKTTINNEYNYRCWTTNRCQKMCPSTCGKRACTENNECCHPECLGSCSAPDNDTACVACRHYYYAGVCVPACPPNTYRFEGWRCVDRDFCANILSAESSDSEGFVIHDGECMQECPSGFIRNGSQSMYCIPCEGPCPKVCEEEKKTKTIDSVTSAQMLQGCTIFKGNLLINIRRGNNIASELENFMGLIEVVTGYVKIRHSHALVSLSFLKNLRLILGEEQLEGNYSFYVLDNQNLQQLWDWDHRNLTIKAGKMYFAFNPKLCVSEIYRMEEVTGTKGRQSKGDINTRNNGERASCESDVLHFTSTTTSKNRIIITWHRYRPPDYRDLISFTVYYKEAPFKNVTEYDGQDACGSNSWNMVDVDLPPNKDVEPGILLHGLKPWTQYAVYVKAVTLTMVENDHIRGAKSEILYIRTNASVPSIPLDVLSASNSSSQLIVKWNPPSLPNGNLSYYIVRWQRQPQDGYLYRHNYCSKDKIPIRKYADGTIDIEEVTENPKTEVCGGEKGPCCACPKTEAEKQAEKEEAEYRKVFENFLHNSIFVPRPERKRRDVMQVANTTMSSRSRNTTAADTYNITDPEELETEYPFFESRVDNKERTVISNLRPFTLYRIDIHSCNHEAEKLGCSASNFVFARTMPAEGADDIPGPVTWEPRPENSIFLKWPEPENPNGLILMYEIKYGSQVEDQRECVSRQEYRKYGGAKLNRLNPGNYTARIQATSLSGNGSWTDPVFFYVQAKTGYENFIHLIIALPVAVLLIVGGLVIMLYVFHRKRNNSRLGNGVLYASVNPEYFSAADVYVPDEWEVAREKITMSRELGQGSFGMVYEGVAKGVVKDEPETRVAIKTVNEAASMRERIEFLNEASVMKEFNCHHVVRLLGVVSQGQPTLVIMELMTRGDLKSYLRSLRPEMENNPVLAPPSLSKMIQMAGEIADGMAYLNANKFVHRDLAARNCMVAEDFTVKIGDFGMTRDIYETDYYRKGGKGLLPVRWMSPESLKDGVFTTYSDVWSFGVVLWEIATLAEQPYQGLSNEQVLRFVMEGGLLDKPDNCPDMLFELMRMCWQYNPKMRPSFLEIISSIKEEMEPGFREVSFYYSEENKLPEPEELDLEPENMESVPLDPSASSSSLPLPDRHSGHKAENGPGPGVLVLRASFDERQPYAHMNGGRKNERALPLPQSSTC

| SMILES | IC50 [1] | IC50 [2] |
| --- | --- | --- |
| CCOC(=O)c1cnc2c(F)ccc(F)c2c1Sc1ccc(Cl)cc1 [Compound A732, 4-(4-Chlorophenylmercapto)-5,8-difluoro-3-ethoxycarbonylquinoline] | > 100 µM |  |
| CCOC(=O)c1cnc2ccc(C(F)(F)F)cc2c1Nc1ccc(C#N)cc1 [Compound A725, 4-(4-Cyanophenylamino)-3-ethoxycarbonyl-6-trifluoromethylquinoline] | > 100 µM | > 100 µM |
| CCOC(=O)c1cnc2ccc(C(F)(F)F)cc2c1Nc1ccccc1C#N [Compound A723, 4-(2-Cyanophenylamino)-3-ethoxycarbonyl-6-trifluoromethylquinoline] | > 100 µM | > 10 µM |
| CCOC(=O)c1cnc2ccc(C(F)(F)F)cc2c1Nc1ccc(Cl)cc1 [Compound A729, 4-(4-Chlorophenylamino)-3-ethoxycarbonyl-6-trifluoromethylquinoline] | > 100 µM | > 100 µM |
| CCOC(=O)c1cnc2c(F)ccc(F)c2c1Sc1cccc(C(F)(F)F)c1 [Compound A713, 3-Ethoxycarbonyl-5,8-difluoro-4-(3-trifluoromethylphenylmercapto)quinoline] | > 100 µM | 36 µM |
| CCOC(=O)c1cnc2ccc(C(F)(F)F)cc2c1Nc1ccc(OC)c(OC)c1 [Compound A726, 3-Ethoxycarbonyl-4-(3,4-dimethoxyphenylamino)-6-trifluoromethylquinoline] | > 100 µM | > 100 µM |
| CCOC(=O)c1cnc2c(F)cc(F)cc2c1Sc1ccc(Cl)cc1 [Compound A730, 4-(4-Chlorophenylmercapto)-6,8-difluoro-3-ethoxycarbonylquinoline] | > 50 µM |  |
| CCOC(=O)c1cnc2cc(Cl)c(F)cc2c1Sc1ccc(Cl)cc1 [Compound A731, 7-Chloro-4-(4-chlorophenylmercapto)-6-fluoro-3-ethoxycarbonylquinoline] | > 50 µM |  |

Results, then the molecule that gave them:

| IC50 [1] | IC50 [2] | SMILES |
| --- | --- | --- |
| > 100 µM | > 100 µM | CCOC(=O)c1cnc2ccc(C(F)(F)F)cc2c1Nc1cccc(Br)c1 [Compound A716, 4-(3-Bromophenylamino)-3-ethoxycarbonyl-6-trifluoromethylquinoline] |
| > 100 µM | > 50 µM | CCOC(=O)c1cnc2ccc(C(F)(F)F)cc2c1NCc1cccc(C(F)(F)F)c1 [Compound A718, 3-Ethoxycarbonyl-4-(3-trifluoromethylbenzylamino)-6-trifluoromethylquinoline] |
| > 100 µM | > 100 µM | CCOC(=O)c1cnc2ccc(C(F)(F)F)cc2c1Nc1cccc(C(F)(F)F)c1 [Compound A721, 3-Ethoxycarbonyl-4-(3-trifluoromethylphenylamino)-6-trifluoromethylquinoline] |
| > 100 µM | > 100 µM | CCOC(=O)c1cnc2ccc(C(F)(F)F)cc2c1NCc1ccccc1C(F)(F)F [Compound A717, 3-Ethoxycarbonyl-4-(2-trifluoromethylbenzylamino)-6-trifluoromethylquinoline] |
| > 100 µM | > 100 µM | CCOC(=O)c1cnc2ccc(C(F)(F)F)cc2c1NCc1ccc(C(F)(F)F)cc1 [Compound A719, 3-Ethoxycarbonyl-4-(4-trifluoromethylbenzylamino)-6-trifluoromethylquinoline] |
| > 100 µM | > 10 µM | CCOC(=O)c1cnc2ccc(C(F)(F)F)cc2c1Nc1ccc(Br)cc1 [Compound A727, 4-(4-Bromophenylamino)-3-ethoxycarbonyl-6-trifluoromethylquinoline] |
| > 100 µM | > 75 µM | CCOC(=O)c1cnc2ccc(C(F)(F)F)cc2c1Nc1cccc(Cl)c1 [Compound A728, 4-(3-Chlorophenylamino)-3-ethoxycarbonyl-6-trifluoromethylquinoline] |
| > 100 µM | > 100 µM | CCOC(=O)c1cnc2ccc(C(F)(F)F)cc2c1Nc1ccccc1C(F)(F)F [Compound A720, 3-Ethoxycarbonyl-4-(2-trifluoromethylphenylamino)-6-trifluoromethylquinoline] |
| > 100 µM | > 100 µM | CCOC(=O)c1cnc2ccc(C(F)(F)F)cc2c1Nc1ccc(C(F)(F)F)cc1 [Compound A722, 3-Ethoxycarbonyl-4-(4-trifluoromethylphenylamino)-6-trifluoromethylquinoline] |
